pEC50: −log10 of the molar value.
Columns and labels:
[1] = target: T1, α4β7 integrin (Homo sapiens, UniProt P13612+P26010); assay: α4β7 Integrin Cell Capture Assay; type: cell-based; details: capture of α4β7 integrin expressing RPM18866 cells on MadCAM-1 extracellular domain-coated plate
T1 construct: monitoring the capture of α4β7 integrin expressing cells; endogenous in cells; host or cells: RPMI8866
T1 sequence (P13612 34-1032): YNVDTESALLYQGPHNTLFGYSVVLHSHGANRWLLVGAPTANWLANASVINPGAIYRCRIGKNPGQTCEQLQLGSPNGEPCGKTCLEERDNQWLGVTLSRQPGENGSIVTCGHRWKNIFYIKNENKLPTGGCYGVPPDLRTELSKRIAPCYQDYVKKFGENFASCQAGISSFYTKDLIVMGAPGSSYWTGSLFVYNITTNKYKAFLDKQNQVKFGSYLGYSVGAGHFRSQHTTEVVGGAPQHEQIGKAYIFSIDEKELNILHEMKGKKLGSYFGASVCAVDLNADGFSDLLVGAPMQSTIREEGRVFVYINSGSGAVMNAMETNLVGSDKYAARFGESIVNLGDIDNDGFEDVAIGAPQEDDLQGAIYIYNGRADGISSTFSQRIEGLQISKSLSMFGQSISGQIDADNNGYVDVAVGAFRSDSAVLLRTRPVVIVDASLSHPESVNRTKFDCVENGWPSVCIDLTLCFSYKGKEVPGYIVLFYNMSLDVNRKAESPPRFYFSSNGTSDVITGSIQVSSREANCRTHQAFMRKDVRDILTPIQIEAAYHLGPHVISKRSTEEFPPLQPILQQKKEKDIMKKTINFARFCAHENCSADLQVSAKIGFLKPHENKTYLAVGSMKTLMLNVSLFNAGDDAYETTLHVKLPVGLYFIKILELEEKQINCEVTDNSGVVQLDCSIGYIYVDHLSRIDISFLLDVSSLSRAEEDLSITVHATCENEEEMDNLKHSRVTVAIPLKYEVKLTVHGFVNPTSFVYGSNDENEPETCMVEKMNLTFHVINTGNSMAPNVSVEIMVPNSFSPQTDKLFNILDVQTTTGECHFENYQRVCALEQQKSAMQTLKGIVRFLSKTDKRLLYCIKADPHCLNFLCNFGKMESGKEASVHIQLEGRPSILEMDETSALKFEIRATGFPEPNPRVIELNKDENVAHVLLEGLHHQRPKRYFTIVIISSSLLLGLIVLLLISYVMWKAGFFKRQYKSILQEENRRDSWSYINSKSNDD
T1 sequence (P26010 20-798): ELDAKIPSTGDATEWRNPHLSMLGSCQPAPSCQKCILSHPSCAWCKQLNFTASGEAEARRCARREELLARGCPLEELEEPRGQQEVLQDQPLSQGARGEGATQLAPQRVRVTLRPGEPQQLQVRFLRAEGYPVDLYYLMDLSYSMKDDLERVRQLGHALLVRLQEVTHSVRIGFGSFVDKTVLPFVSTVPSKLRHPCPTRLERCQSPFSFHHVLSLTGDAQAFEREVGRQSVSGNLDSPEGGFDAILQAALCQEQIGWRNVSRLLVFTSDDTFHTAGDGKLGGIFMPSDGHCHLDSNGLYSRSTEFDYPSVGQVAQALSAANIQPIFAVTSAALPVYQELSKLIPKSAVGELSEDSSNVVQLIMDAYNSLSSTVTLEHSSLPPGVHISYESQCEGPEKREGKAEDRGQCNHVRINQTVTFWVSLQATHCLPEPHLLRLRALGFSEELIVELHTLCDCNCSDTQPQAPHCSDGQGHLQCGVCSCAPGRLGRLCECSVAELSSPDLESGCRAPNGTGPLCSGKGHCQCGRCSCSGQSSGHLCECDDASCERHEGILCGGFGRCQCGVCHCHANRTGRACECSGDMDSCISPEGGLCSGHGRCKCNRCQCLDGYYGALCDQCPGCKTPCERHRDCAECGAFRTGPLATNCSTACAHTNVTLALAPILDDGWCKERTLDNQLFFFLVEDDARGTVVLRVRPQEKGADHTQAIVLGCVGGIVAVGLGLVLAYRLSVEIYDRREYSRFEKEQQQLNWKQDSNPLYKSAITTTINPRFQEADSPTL
Experimental: The potency of inhibitors in preventing α4β7 integrin interaction with MadCAM-1 was measured by monitoring the capture of α4β7 integrin expressing cells on a recombinant MadCAM-1 extracellular domain-coated plate.
384-well plates (Corning 3702) were coated with MadCAM-1 extracellular domain by dispensing 20 μL of MAdCAM-1 at 1.0 μg/mL per well and incubating overnight at 4° C. The plates were then washed with PBS and blocked with 3% BSA for 2 hours before being washed again.
(§1) RPM18866 cells were spun down and re-suspended in assay medium (DMEM+0.5% FBS+0.5 mM MnCl2) at a density of 0.5×10^6 cells/mL. The cells were then dispensed (60 μL/well) to a 384-well plate (Greiner 781280) that was previously spotted with 60 nL of test compound per well. The plates were incubated at 37° C. for 1 hour. 50 μL of cells were transferred to the blocked, MadCAM-1-coated plates and incubated for 30 minutes at 37° C. 10 μL of 12% glutaraldehyde containing Hoechst 33342 (0.06 mg/mL) was added to the cells (2% glutaraldehyde and 0.01 mg/mL final concentrations). The plates were incubated for 90 minutes at room temperature. The plates were then washed 3 times with 70 μL of PBS per well and imaged on a Cellomics ArrayScan instrument. The cells that were bound to the plate were counted and plotted against the compound concentration to determine the EC50 of the test compounds.

[2] = target: T2, α4β1 integrin (Homo sapiens, UniProt P05556+P13612); assay: α4β1 Cell Capture Assay; type: cell-based; details: capture of α4β1 expressing Jurkat cells on VCAM-1 extracellular domain-coated plate
T2 construct: monitoring the capture of α4β1 expressing cells; endogenous in cells; host or cells: Jurkat
T2 sequence (P05556 21-798, one chain of several): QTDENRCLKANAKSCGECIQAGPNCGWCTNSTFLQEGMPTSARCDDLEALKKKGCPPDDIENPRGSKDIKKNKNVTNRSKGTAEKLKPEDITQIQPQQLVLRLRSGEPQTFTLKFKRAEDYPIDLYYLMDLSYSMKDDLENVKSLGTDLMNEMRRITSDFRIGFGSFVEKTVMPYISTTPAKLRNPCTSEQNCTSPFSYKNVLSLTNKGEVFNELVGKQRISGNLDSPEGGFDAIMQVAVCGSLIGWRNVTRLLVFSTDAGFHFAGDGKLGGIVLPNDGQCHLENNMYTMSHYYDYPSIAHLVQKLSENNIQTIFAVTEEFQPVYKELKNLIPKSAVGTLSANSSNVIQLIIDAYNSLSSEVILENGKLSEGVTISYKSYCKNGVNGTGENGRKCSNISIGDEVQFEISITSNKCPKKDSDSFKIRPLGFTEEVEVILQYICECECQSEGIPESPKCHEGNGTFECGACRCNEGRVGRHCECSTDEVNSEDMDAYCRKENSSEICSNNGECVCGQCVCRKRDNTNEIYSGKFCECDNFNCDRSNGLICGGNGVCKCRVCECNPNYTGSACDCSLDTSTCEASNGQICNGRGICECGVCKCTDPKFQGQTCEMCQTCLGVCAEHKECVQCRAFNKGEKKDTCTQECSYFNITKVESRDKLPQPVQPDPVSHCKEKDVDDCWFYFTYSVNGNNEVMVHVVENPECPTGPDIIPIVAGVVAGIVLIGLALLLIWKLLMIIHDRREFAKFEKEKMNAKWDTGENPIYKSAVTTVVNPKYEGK
Experimental: The potency of inhibitors in preventing α4β1 integrin interaction with VCAM-1 was measured by monitoring the capture of α4β1 expressing cells to a recombinant VCAM-1 extracellular domain-coated plate.
384-well plates (Corning 3702) were coated with VCAM-1 extracellular domain by dispensing 20 μL of VCAM-1 at 0.5 μg/ml per well and incubating overnight at 4° C. The plates were then washed with PBS and blocked with 3% BSA for 2 hours before being washed again.
as §1, with “Jurkat cells” for “RPM18866 cells”, “0.5×10^6 cells/ml.” for “0.5×10^6 cells/mL.”, “blocked, VCAM-1-coated” for “blocked, MadCAM-1-coated”, “10 μl” for “10 μL”, “0.01 mg/ml Hoechst 33342” for “0.01 mg/mL”

How did the pEC50 ([1]; Table 2) turn out when `Cc1cc(N2CCOC[C@@H]2C(F)(F)F)cc(F)c1C(=O)N[C@@H](Cc1ccc(-n2c(=O)c3ccncc3n(C)c2=O)c(C(F)(F)F)c1)C(=O)O` (atropisomer, axis not shown) [Example 89] was run?
Its pEC50 is 9.22.

What about the pEC50 ([2]; Table 2) of the same compound?
Its pEC50 is 8.64.

`Cc1cc(N2CCOC[C@@H]2C(F)(F)F)cc(F)c1C(=O)N[C@@H](Cc1ccc(-n2c(=O)c3ccncc3n(C)c2=O)c(C(F)(F)F)c1)C(=O)O` (atropisomer, axis not shown) [Example 90] was tested. Which pEC50 ([1]; Table 2) did it give?
Its pEC50 is 9.15.

And the pEC50 ([2]; Table 2)?
The pEC50 was 8.01.

`Cc1cc(N2CCOC[C@@H]2C(F)(F)F)cc(F)c1C(=O)N[C@@H](Cc1ccc(-n2c(=O)c3ccncc3n(C)c2=O)c(OC(F)(F)F)c1)C(=O)O` (atropisomer, axis not shown) [Example 92] was tested. Which pEC50 ([1]; Table 2) did it give?
The pEC50 was 9.70.

And the pEC50 ([2]; Table 2)?
Its pEC50 is 8.89.

Which results are given for `Cc1cc(N2CCOC[C@@H]2C(F)(F)F)cc(F)c1C(=O)N[C@@H](Cc1ccc(-n2c(=O)c3ccncc3n(C)c2=O)c(OC(F)(F)F)c1)C(=O)O` (atropisomer, axis not shown) [Example 93]?
pEC50 ([1]; Table 2): 9.40; pEC50 ([2]; Table 2): 7.59

With `CC[C@@H](Nc1cc(F)c(C(=O)N[C@@H](Cc2ccc(-c3c(C(F)(F)F)cc(C)n(C)c3=O)cc2)C(=O)O)c(F)c1)C(F)(F)F` [Example 1, (S)-2-(2,6-difluoro-4-(((R)-1,1,1-trifluorobutan-2-yl)amino)benzamido)-3-(4-(1,6-dimethyl-2-oxo-4-(trifluoromethyl)-1,2-dihydropyridin-3-yl)phenyl)propanoic acid] as the compound, how does the pEC50 ([1]; Table 1) read?
Its pEC50 is 8.85.

And the pEC50 ([2]; Table 1)?
Its pEC50 is 7.99.

`CC[C@@H](Nc1cc(F)c(C(=O)N[C@@H](Cc2ccc(-c3c(C(F)(F)F)cc(=O)n(C)c3C)cc2)C(=O)O)c(F)c1)C(F)(F)F` [Example 2, (S)-2-(2,6-difluoro-4-(((R)-1,1,1-trifluorobutan-2-yl)amino)benzamido)-3-(4-(1,2-dimethyl-6-oxo-4-(trifluoromethyl)-1,6-dihydropyridin-3-yl)phenyl)propanoic acid] was tested. Which pEC50 ([1]; Table 1) did it give?
The pEC50 was 7.87.

And the pEC50 ([2]; Table 1)?
Its pEC50 is 6.04.

Which results are given for `Cc1cc(C(F)(F)F)c(-c2ccc(C[C@H](NC(=O)c3c(F)cc(N4CCOC[C@@H]4C(F)(F)F)cc3F)C(=O)O)cc2)c(=O)n1C` [Example 3, (S)-2-(2,6-difluoro-4-((R)-3-(trifluoromethyl)morpholino)benzamido)-3-(4-(1,6-dimethyl-2-oxo-4-(trifluoromethyl)-1,2-dihydropyridin-3-yl)phenyl)propanoic acid]?
pEC50 ([1]; Table 1): 9.30; pEC50 ([2]; Table 1): 7.73

How did the pEC50 ([1]; Table 1) turn out when `Cc1c(C(F)(F)F)cn(C)c(=O)c1-c1ccc(C[C@H](NC(=O)c2c(F)cc(N3CCOC[C@@H]3C(F)(F)F)cc2F)C(=O)O)cc1` [Example 4, (S)-2-(2,6-difluoro-4-((R)-3-(trifluoromethyl)morpholino)benzamido)-3-(4-(1,4-dimethyl-2-oxo-5-(trifluoromethyl)-1,2-dihydropyridin-3-yl)phenyl)propanoic acid] was run?
Its pEC50 is 8.92.

What about the pEC50 ([2]; Table 1) of the same compound?
Its pEC50 is 7.20.

Which results are given for `Cc1cc(C[C@H](NC(=O)c2c(C)cc(N3CCOC[C@@H]3C(F)(F)F)cc2F)C(=O)O)ccc1-c1c(C(F)(F)F)cc(C)n(C)c1=O` [Example 5, (S)-3-(4-(1,6-dimethyl-2-oxo-4-(trifluoromethyl)-1,2-dihydropyridin-3-yl)-3-methylphenyl)-2-(2-fluoro-6-methyl-4-((R)-3-(trifluoromethyl)morpholino)benzamido)propanoic acid]?
pEC50 ([1]; Table 1): 9.70; pEC50 ([2]; Table 1): 7.78

How did the pEC50 ([1]; Table 1) turn out when `Cc1cc(C(F)(F)F)c(-c2ccc(C[C@H](NC(=O)c3c(F)cc(N4CCOC[C@@H]4C(F)(F)F)cc3F)C(=O)O)cc2F)c(=O)n1C` [Example 6, (S)-2-(2,6-difluoro-4-((R)-3-(trifluoromethyl)morpholino)benzamido)-3-(4-(1,6-dimethyl-2-oxo-4-(trifluoromethyl)-1,2-dihydropyridin-3-yl)-3-fluorophenyl)propanoic acid] was run?
Its pEC50 is 9.52.

What about the pEC50 ([2]; Table 1) of the same compound?
Its pEC50 is 8.00.

`Cc1cc(N2CCOC[C@@H]2C(F)(F)F)cc(F)c1C(=O)N[C@@H](Cc1ccc(-c2nc(C)c(C)n(C)c2=O)c(Cl)c1)C(=O)O` [Example 7, (S)-3-(3-chloro-4-(4,5,6-trimethyl-3-oxo-3,4-dihydropyrazin-2-yl)phenyl)-2-(2-fluoro-6-methyl-4-((R)-3-(trifluoromethyl)morpholino)benzamido)propanoic acid] was tested. Which pEC50 ([1]; Table 1) did it give?
Its pEC50 is 9.30.

What about the pEC50 ([2]; Table 1) of the same compound?
Its pEC50 is 7.82.

How did the pEC50 ([1]; Table 1) turn out when `CC[C@@H](Nc1cc(F)c(C(=O)N[C@@H](Cc2ccc(-n3c(=O)c4ccncc4n(C)c3=O)nc2)C(=O)O)c(F)c1)C(F)(F)F` [Example 9, (S)-2-(2,6-difluoro-4-(((R)-1,1,1-trifluorobutan-2-yl)amino)benzamido)-3-(6-(1-methyl-2,4-dioxo-1,4-dihydropyrido[3,4-d]pyrimidin-3(2H)-yl)pyridin-3-yl)propanoic acid] was run?
The pEC50 was 8.80.

And the pEC50 ([2]; Table 1)?
The pEC50 was 6.93.

With `CC[C@@H](Nc1cc(C)c(C(=O)N[C@@H](Cc2ccc(-n3c(=O)c4ccncc4n(C)c3=O)nc2)C(=O)O)c(F)c1)C(F)(F)F` [Example 11, (S)-2-(2-fluoro-6-methyl-4-(((R)-1,1,1-trifluorobutan-2-yl)amino)benzamido)-3-(6-(1-methyl-2,4-dioxo-1,4-dihydropyrido[3,4-d]pyrimidin-3(2H)-yl)pyridin-3-yl)propanoic acid] as the compound, how does the pEC50 ([1]; Table 1) read?
Its pEC50 is 9.30.

What about the pEC50 ([2]; Table 1) of the same compound?
The pEC50 was 7.52.

Source: patent US11578069B2, “Compounds for inhibition of α4 β7 integrin” (Gilead Sciences, Inc., priority 2019, dated 2023)
